Source: PMC11397358, “Cytotoxic Activity of Novel GnRH Analogs Conjugated with Mitoxantrone in Ovarian Cancer Cells” (Molecules, 2024)

How the values were obtained:
human GnRH-R = target: T1, human GnRH-R (Homo sapiens, UniProt P30968); assay: Calcium-based (fura-2) kinetic assay of GnRH-R agonism; type: cell-based; details: HEK293 cells transiently transfected with human GnRH-R; fura-2 ratio, 96-well, Flexstation 3; experiments performed a minimum of three times; read-out: EC50 for increase in intracellular [Ca2+]
T1 construct: host or cells: HEK293 (ATCC CRL-1573)
T1 sequence (P30968 1-328): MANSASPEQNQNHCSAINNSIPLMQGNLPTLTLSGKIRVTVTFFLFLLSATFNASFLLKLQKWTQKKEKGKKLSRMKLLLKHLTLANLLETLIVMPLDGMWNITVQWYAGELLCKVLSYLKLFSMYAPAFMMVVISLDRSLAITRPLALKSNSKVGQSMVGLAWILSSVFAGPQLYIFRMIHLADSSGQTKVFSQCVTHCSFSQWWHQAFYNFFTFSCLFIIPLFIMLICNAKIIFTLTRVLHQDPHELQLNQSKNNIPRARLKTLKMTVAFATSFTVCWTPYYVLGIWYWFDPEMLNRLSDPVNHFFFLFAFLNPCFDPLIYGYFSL
Method: For this purpose, fura-2-based kinetic assays to monitor the [Ca^2+] were performed in real-time using suspensions of HEK293 cells transiently transfected with the human GnRH-R (Figure 2A–I).
HEK293 cells transfected with the human GnRH-R served as a platform with which to test for agonist actions of individual test compounds. These cells were loaded with the ratiometric Ca^2+ indicator fura-2 so that the change in intracellular [Ca^2+] in response to agonist stimulation could be monitored in real time in a 96-well format. For these assays, the individual test compounds were administered at the 100 s time point.
Two days post-transfection, the HEK293 cells were harvested via trypsinization to obtain single-cell suspensions that were plated at 80% density on rat tail collagen-coated 96-well Costar 3904 plates for loading with the ratiometric Ca^2+ indicator fura-2. Measurements of the intracellular [Ca^2+] were performed using a Flexstation 3 microplate reader (Molecular Devices, Sunnyvale, CA, USA). Briefly, test solutions containing GnRH-R agonists were administered to individual wells of a 96-well plate using the automated pipetting feature of the Flexstation under computer control. […] Emitted light was detected at 505/15 nm, and the ratio of emission light intensity due to excitation at 335/9 and 375/9 nm was calculated. […]

SKOV-3 cells [1] = assay: Cell proliferation (MTT) assay; type: cell-based, human; details: over time (days 2–4) and at various concentrations
Method: The antiproliferative effects of GnRH-mitoxantrone conjugates, Con-3, and Con-7, were evaluated using the SKOV-3 cells. The Con-3 and Con-7 conjugates decreased the proliferation rate of SKOV-3 cells in a dose-dependent manner on days 2, 3, and 4 (Figure 3A–C).
Figure 3 Antiproliferative activity of the GnRH analogs. Decrease in the proliferation rate of the SKOV3 cells after their treatment with increasing concentrations of Con-3, Con-7, Con-P1 or Con-P2 for 2 days (A), 3 days (B) and 4 days (C) at 37 °C. At the end of the incubation, the cells were further incubated with 0.5 mg/mL MTT for 4 h at room temperature and the formed purple formazan crystals were quantified by measuring absorbance at 594 nm. The means ± S.E (triplicate determination) are shown from a representative experiment performed 3 times with similar results. The proliferation rates of cells treated with 1 μΜ of GnRH analogs were used to plot the graph D which depicts the decrease in cell growth over the incubation time (D). Statistical analysis was performed using one-way ANOVA.
At the end of the incubation, the cells were further incubated with 0.5 mg/mL MTT for 4 h at room temperature and the formed purple formazan crystals were quantified by measuring absorbance at 594 nm. The means ± S.E (triplicate determination) are shown from a representative experiment performed 3 times with similar results. […] Statistical analysis was performed using one-way ANOVA.
SKOV-3 cells (kindly provided by Prof. Dimitrios Mavroudis, University of Crete) were seeded into 96-well plates at a density of 6000 cells/well, in triplicates, and incubated overnight in Dulbecco’s modified Eagle’s medium/F12 (DMEM/F12) (1:1), containing 3.15 g/L glucose and 10% bovine calf serum (BCS, HyClone), at 37 °C and 5% CO2. At the end of the incubation, the culture medium was replaced with a fresh one containing 3.15 g/L glucose and 2% BCS, with or without increasing concentrations of GnRH analogs or mitoxantrone (0.1 nM–10 µM), and the cells were further incubated at 37 °C and 5% CO2 for 2, 3 and 4 days. Subsequently, (3-(4,5-dimethylthiazol-2-yl)-2,5- diphenyl tetrazolium bromide) (MTT) was added at a final concentration of 0.5 mg/mL, and the mixtures were incubated for 4 h at room temperature in the dark, allowing the viable cells to reduce the MTT to formazan crystals. The supernatants were removed, and the purple formazan crystals were dissolved in isopropanol containing 4% HCl (100 μL/well) by mixing thoroughly for 30 min in the dark, before the quantification of the absorbance at 594 nm using a Dynatech MicroElisa reader (Chantilly, VA, USA). The percentage of the proliferation rate (% proliferation rate) treated with a GnRH analog was determined based on the following equation: % proliferation rate = (absorbance of cells treated with a GnRH analog/absorbance of untreated cells) × 100. The % viability of the untreated cells (control) was defined as 100%. The % viabilities were analyzed by nonlinear regression analysis, using Prism 8.0 (GraphPad Software, Prism 8.0, San Diego, CA, USA).

SKOV-3 cells [2] = assay: Annexin V / propidium iodide apoptosis assay by flow cytometry; type: cell-based, human; details: 1 μM, 2, 3 and 4 days; flow cytometry
Excerpt: We next evaluate the abilities of Con-3 and Con-7 at concentrations of 1 μΜ to induce cell death by determining the percentages of live, apoptotic and necrotic cells after treatment of SKOV-3 cells with the GnRH conjugates. As shown in Figure 5 and Figures S1–S3 on day 2, the majority of SKOV-3 cells were viable (Q4 quadrant), treated either with Con-3, Con-7 or mitoxantrone, whereas the percentage of apoptotic cells (late or early apoptotic) (Q1, Q2 quadrants) was only 10.1%, 10.87% and 13.1% after treatment with Con-3, Con-7 or mitoxantrone, respectively. […] Cell viability further decreased on day 4 with a concomitant increase in apoptosis. Specifically, the percentage of apoptotic cells was 53.5%, 59.6% and 54.3% after treatment with Con-3, Con-7 or mitoxantrone (Figure 5 and Figures S7–S9). In all phases, the percentage of the necrotic and late apoptotic cells (Q3 quadrant) was very small.
Figure 5 Determination of viability, apoptosis, or necrosis of SKOV-3 cells after their treatment with 1 μM Con-3, Con-7, or mitoxantrone for 2, 3, and 4 days at 37 °C. At the end of the incubation the cells were further incubated in binding buffer supplied by Biotium, (CF488A Apoptosis Detection kit) and analyzed on a flow cytometer (excitation 488 nm), in the FITC channel (filter 530 nm) for detection of the Annexin V-positive cellsand in the propidium iodide, or PI, channel (filter 616 nm) for detection of the PI-positive cells. The figures are from a representative experiment performed three times with similar results. A higher resolution of the images in Figure 5 is provided in the Supplementary Material (Figures S1–S9). TEXT PRINTED IN THE PICTURE: Con-3: Q3: 4,19 (Day 2); Q2: 7,12 (Day 2); Q4: 85,7 (Day 2); Q1: 2,98 (Day 2); Q3: 5,31 (Day3); Q2: 19,5 (Day3); Q4: 58,0 (Day3); Q1: 17,1 (Day3); Q3: 3,54 (Day4); Q2: 17,1 (Day4); Q4: 43,0 (Day4); Q1: 36,4 (Day4) | Con-7: Q3: 6,31 (Day 2); Q2: 7,74 (Day 2); Q4: 82,8 (Day 2); Q1: 3,13 (Day 2); Q3: 8,11 (Day3); Q2: 19,8 (Day3); Q4: 56,8 (Day3); Q1: 15,3 (Day3); Q3: 3,48 (Day4); Q2: 19,7 (Day4); Q4: 36,9 (Day4); Q1: 39,9 (Day4) | Mitoxantrone: Q3: 6,49 (Day 2); Q2: 9,40 (Day 2); Q4: 80,4 (Day 2); Q1: 3,67 (Day 2); Q3: 7,13 (Day3); Q2: 18,9 (Day3); Q4: 61,0 (Day3); Q1: 13,1 (Day3); Q3: 2,72 (Day4); Q2: 17,3 (Day4); Q4: 43,0 (Decimal sign as read) (Day4); Q1: 37,0 (Day4) DOUBTS OF THE COPYIST ABOUT THIS PICTURE: All quadrant values: the print is very small, and the decimal sign may be a comma or a point in every value / Con-3, Day 2, Q4: 85,7 or 86,7 / Con-3, Day 2, Q1: 2,98 or 2,96 / Con-3, Day3, Q3: 5,31 or 6,31 / Con-3, Day3, Q2: 19,5 or 19,6 / Con-3, Day3, Q4: 58,0 or 56,0 / Con-3, Day4, Q3: 3,54 or 3,64 / Con-3, Day4, Q1: 36,4 or 38,4 / Con-7, Day 2, Q3: 6,31 or 8,31 / Con-7, Day 2, Q4: 82,8 or 82,6 / Con-7, Day 2, Q1: 3,13 or 3,15 / Con-7, Day3, Q3: 8,11 or 6,11 / Con-7, Day3, Q2: 19,8 or 19,6 / Con-7, Day3, Q4: 56,8 or 58,8 / Con-7, Day3, Q1: 15,3 or 15,8 / Con-7, Day4, Q3: 3,48 or 3,46 / Con-7, Day4, Q4: 36,9 or 38,9 / Con-7, Day4, Q1: 39,9 or 38,9 / Mitoxantrone, Day 2, Q3: 6,49 or 8,49 / Mitoxantrone, Day 2, Q2: 9,40 or 8,40 / Mitoxantrone, Day 2, Q4: 80,4 or 60,4 / Mitoxantrone, Day 2, Q1: 3,67 or 3,87 / Mitoxantrone, Day3, Q2: 18,9 or 16,9 / Mitoxantrone, Day3, Q4: 61,0 or 81,0 / Mitoxantrone, Day3, Q1: 13,1 or 15,1 […]
SKOV-3 cells were seeded into 12-well plates at a density of 50,000 cells/well and incubated overnight in DMEM/F12 (1:1) containing 3.15 g/L glucose and 10% BCS, at 37 °C and 5% CO2. At the end of the incubation, the culture medium was replaced with a fresh one containing 3.15 g/L glucose and 2% BCS, with or without GnRH analogs or mitoxantrone at a concentration of 1 μΜ, and the cells were further incubated at 37 °C and 5% CO2 for 2, 3 and 4 days. […]

| SMILES | EC50 (human GnRH-R) [nM] | effect on proliferation of SKOV-3 cells, in words (SKOV-3 cells [1]) | effect on viability of SKOV-3 cells, in words (SKOV-3 cells [2]) |
| --- | --- | --- | --- |
| CCNC(=O)[C@@H]1CCCN1C(=O)[C@H](CCCNC(=N)N)NC(=O)[C@H](CC(C)C)NC(=O)[C@@H](CS)NC(=O)[C@H](Cc1ccc(O)cc1)NC(=O)[C@H](CO)NC(=O)[C@H](Cc1c[nH]c2ccccc12)NC(=O)[C@H](Cc1c[nH]cn1)NC(=O)[C@@H]1CCC(=O)N1 [Con-P2] | 0.67 |  |  |
| CCNC(=O)[C@@H]1CCCN1C(=O)[C@H](CCCNC(=N)N)NC(=O)[C@H](CC(C)C)NC(=O)[C@@H](CCCCN)NC(=O)[C@H](Cc1ccc(O)cc1)NC(=O)[C@H](CO)NC(=O)[C@H](Cc1c[nH]c2ccccc12)NC(=O)[C@H](Cc1c[nH]cn1)NC(=O)[C@@H]1CCC(=O)N1 [Con-P1] |  | did not affect the proliferation of SKOV-3 cells | did not affect the viability of SKOV-3 cells |
